Test results reported in US8541460B2, “PDK-1/Akt signaling inhibitors” (The Ohio State University, priority 2003, dated 2013).

Experiments:
PC-3 cells = test: PC-3 cell viability analysis (MTT); assay type: cell-based, human; settings: inducing apoptotic death in PC-3 cells / PC-3 cell viability; read-out: IC50 PC-3
Method: Cell Culture PC-3 (p53−/−) human androgen-nonresponsive prostate cancer cells were purchased from the American […] (Manassas, Va.). Cells were cultured in RPMI 1640 medium (Gibco, Grand Island, N.Y.) supplemented with 10% fetal bovine serum (FBS; Gibco) at 37° C. in a humidified incubator containing 5% CO2.
Cell viability analysis The effect of 4-[5-(4-methylphenyl)-3-(trifluoromethyl)-1H-pyrazol-1-yl]benzenesulfonamide and its derivatives on PC-3 cell viability was assessed by using the MTT {[3-(4,5-dimethylthiazol-2-yl)-2,5-diphenyl-2H-tetrazolium bromide]} assay in six replicates. Cells were grown in 10% FBS-supplemented RPMI 1640 medium in 96-well, flat bottomed plates for 24 h, and were exposed to various concentrations of compounds 1-36 dissolved in DMSO (final concentration≦0.1%) in 1% serum-containing RPMI 1640 medium for different time intervals. Controls received DMSO vehicle at a concentration equal to that in drug-treated cells. The medium was removed, replaced by 200 μl of 0.5 mg/ml of MTT in 10% FBS-containing RPMI-1640 medium, and cells were incubated in the CO2 incubator at 37° C. for 2 h. Supernatants were removed from the wells, and the reduced MTT dye was solubilized in 200 μL/well DMSO. Absorbance at 570 nm was determined on a plate reader.

recombinant PDK-1 = target: T1, recombinant PDK-1 (Homo sapiens, UniProt O15530); test: PDK-1 kinase activity (Upstate kit, cell-free); assay type: biochemical
T1 construct: purchased Upstate (Lake Placid, N.Y.)
T1 sequence (O15530 1-556): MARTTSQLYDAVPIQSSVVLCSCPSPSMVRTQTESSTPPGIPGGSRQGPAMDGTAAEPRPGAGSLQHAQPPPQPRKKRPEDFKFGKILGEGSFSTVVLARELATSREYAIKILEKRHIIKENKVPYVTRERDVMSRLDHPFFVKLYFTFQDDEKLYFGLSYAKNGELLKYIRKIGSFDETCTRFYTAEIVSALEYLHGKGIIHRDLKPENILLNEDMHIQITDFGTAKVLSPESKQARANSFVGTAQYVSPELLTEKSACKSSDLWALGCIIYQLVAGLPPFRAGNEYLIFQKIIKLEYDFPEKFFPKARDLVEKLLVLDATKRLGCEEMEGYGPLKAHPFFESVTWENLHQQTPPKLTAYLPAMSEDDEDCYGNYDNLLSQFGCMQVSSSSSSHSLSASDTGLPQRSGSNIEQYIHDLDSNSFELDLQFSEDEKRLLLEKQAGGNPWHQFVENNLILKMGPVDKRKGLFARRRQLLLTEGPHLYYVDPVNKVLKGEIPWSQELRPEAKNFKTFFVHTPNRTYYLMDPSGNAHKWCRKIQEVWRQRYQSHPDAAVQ
Method: PDK-1 kinase activity This in vitro assay was performed using a PDK-1 kinase assay kit (Upstate, Lake Placid, N.Y.) according to the vendor's instructions. This cell-free assay is based on the ability of recombinant PDK-1, in the presence of DMSO vehicle or the test agent, to activate its downstream kinase serum- and glucocorticoid-regulated kinase (SGK.) which, in turn, phosphorylates the Akt/SGK-specific peptide substrate RPRAATF with [γ-^32]-ATP. […] The reported values represent the means of two independent determinations.

BT-549 = test: NCI DTP cell line screen (SRB), Breast Cancer; assay type: cell-based
U251 = test: NCI DTP cell line screen (SRB), CNS Cancer; assay type: cell-based, human
Method: Screening of compounds 70 and 71 against several cancer cell lines The human tumor cell lines of the cancer screening panel are grown in RPMI 1640 medium containing 5% fetal bovine serum and 2 mM L-glutamine. For a typical screening experiment, cells are inoculated into 96 well microtiter plates in 100 μL at plating densities ranging from 5,000 to 40,000 cells/well depending on the doubling time of individual cell lines. After cell inoculation, the microtiter plates are incubated at 37° C., 5% CO2, 95% air and 100% relative humidity for 24 h prior to addition of experimental drugs.
After 24 h, two plates of each cell line are fixed in situ with TCA, to represent a measurement of the cell population for each cell line at the time of drug addition (Tz). Experimental drugs are solubilized in dimethyl sulfoxide at 400-fold the desired final maximum test concentration and stored frozen prior to use. At the time of drug addition, an aliquot of frozen concentrate is thawed and diluted to twice the desired final maximum test concentration with complete medium containing 50 μg/ml gentamicin. Additional four, 10-fold or ½ log serial dilutions are made to provide a total of five drug concentrations plus control. Aliquots of 100 μl of these different drug dilutions are added to the appropriate microtiter wells already containing 100 μl of medium, resulting in the required final drug concentrations.
Following drug addition, the plates are incubated for an additional 48 h at 37° C., 5% CO2, 95% air, and 100% relative humidity. For adherent cells, the assay is terminated by the addition of cold TCA. Cells are fixed in situ by the gentle addition of 50 μl of cold 50% (w/v) TCA (final concentration, 10% TCA) and incubated for 60 minutes at 4° C. The supernatant is discarded, and the plates are washed five times with tap water and air dried. Sulforhodamine B (SRB) solution (100 μl) at 0.4% (w/v) in 1% acetic acid is added to each well, and plates are incubated for 10 minutes at room temperature. After staining, unbound dye is removed by washing five times with 1% acetic acid and the plates are air dried. Bound stain is subsequently solubilized with 10 mM trizma base, and the absorbance is read on an automated plate reader at a wavelength of 515 nm. For suspension cells, the methodology is the same except that the assay is terminated by fixing settled cells at the bottom of the wells by gently adding 50 μl of 80% TCA (final concentration, 16% TCA). Using the seven absorbance measurements [time zero, (Tz), control growth, (C), and test growth in the presence of drug at the five concentration levels (Ti)], the percentage growth is calculated at each of the drug concentrations levels. Percentage growth inhibition is calculated as: [(Ti−Tz)/(C−Tz)]×100 for concentrations for which Ti>/=Tz [(Ti−Tz)/Tz]×100 for concentrations for which Ti<Tz
Three dose response parameters are calculated for each experimental agent. […] The drug concentration resulting in total growth inhibition (TGI) is calculated from Ti=Tz. […] Values are calculated for each of these three parameters if the level of activity is reached; however, if the effect is not reached or is exceeded, the value for that parameter is expressed as greater or less than the maximum or minimum concentration tested.
The methods described were used to test compounds 70 and 71 on a panel of sixty cell lines under a screening service provided by the Developmental Therapeutics Program at the National Institutes of Health. Shown in FIG. 1C are 1, RPMI-8226 leukemia cells; 2; NCI-H322M non-small cell lung cancer cells; 3, HT29 colon cancer cells; 4, U251 CNS cancer cells; 5, SK-MEL-28 melanoma cancer cells; 6, SK-OV-3 ovarian cancer cells; 7, RXF 393 renal cancer cells; 8, PC-3 prostate cancer cells; 9, MDA-MB-231 breast cancer cells.

Structure (SMILES): N=C(N)Nc1ccc(-n2nc(C(F)(F)F)cc2-c2ccc3c(ccc4ccccc43)c2)cc1 [Compound 71, 4-[5-(2-Phenanthrenyl)-3-(trifluoromethyl)-1H-pyrazol-1-yl]-phenyl-guanidine]
- IC50 (PC-3 cells): 3000 nM

Structure (SMILES): NCC(=O)Nc1ccc(-n2nc(C(F)(F)F)cc2-c2ccc3c(ccc4ccccc43)c2)cc1 [Compound 70, 2-Amino-N-{4-[5-(2-phenanthrenyl)-3-(trifluoromethyl)-1H-pyrazol-1-yl]-phenyl}-acetamide]
- increase in potency over compound 59 (PDK-1 inhibition) (recombinant PDK-1): two
- TGI (BT-549): 2.95E−06
- Percent Growth (BT-549; Log10 Concentration −4.0): −60%
- Percent Growth (BT-549; Log10 Concentration −5.0): −71%
- Percent Growth (BT-549; Log10 Concentration −6.0): 63%
- Percent Growth (BT-549; Log10 Concentration −7.0): 86%
- Percent Growth (BT-549; Log10 Concentration −8.0): 90%
- TGI (U251): 2.64E−06
- Percent Growth (U251; Log10 Concentration −4.0): −18%
- Percent Growth (U251; Log10 Concentration −5.0): −63%
- Percent Growth (U251; Log10 Concentration −6.0): 46%
- Percent Growth (U251; Log10 Concentration −7.0): 82%
- Percent Growth (U251; Log10 Concentration −8.0): 100%
